Series [1] concerns p21. In words: p21 accumulation in RKO cells. It is filed as cell-based, human. To be noted: 6 h. The method, then:
It was therefore hypothesized that the isopeptidase inhibitors PNG 4 (8) and PNG 6 (10) would cause a similar accumulation of p21 protein. RKO cells were treated with 2 μM and 7 μM of 8 and 10, 50 μM Etoposide, 60 μM PGA2 (3), or 0.5% DMSO for 6 h before harvesting. Protein was then quantitated, fractionated by SDS-PAGE, and probed for p21 protein. The p21 band intensities were then analyzed and quantitated using densitometry. The ratio of p21 in treated cells to control cells was calculated by dividing the amount of p21 in treated cells by the amount in control cells and multiplied by 100 to give percent.

The test system of series [2] is p53. In words: p53 accumulation ratio in RKO-E6 and RKO cells, punaglandin study. It is filed as cell-based, human. To be noted: 6 h; 50 μM Etoposide, 60 μM PGA2. As to the method:
To determine if punaglandins inhibit p53 degradation by disrupting the proteasome pathway, the accumulation ratio of p53 was determined in RKO and RKO-E6 cells treated with selected punaglandins, PNG 4 (8) and PNG 6 (10). Equally seeded RKO and RKO-E6 cells were treated with vehicle (0.5% DMSO), 50 μM Etoposide, 60 μM PGA2 (3), 7 μM PNG 6 (10), and 7 μM PNG 4 (8). After 6 h incubation with vehicle or drug, cells were lysed and harvester. […] of protein from each lysate was fractionated by SDS-PAGE and probed for p53 protein. The p53 band intensities were then analyzed and quantitated using densitometry. The ratio of p53 in RKO-E6 to RKO cells was calculated by dividing the amount of p53 in RKO-E6 cells by the amount in RKO cells and multiplying by 100 to give percent

Series [3] relates to isopeptidase. Conditions: cited from earlier work.
The subject of series [4] is HCT 116 −/− cells. In words: MTT cell viability assay, HCT 116 p53 −/− cells. To be noted: for EC50: read-out: Cytotoxic Potency (EC50) HCT −/−. A general note: Tetrazolium assays rely on reduction of a dye to a coloured formazan, in cell work by metabolically active cells.
Experimental: Cell viability was measured with MTT reagent as described in materials and methods.
Cell viability was detected by the MTT assay. Briefly, 1×10^5 cells were incubated per well of a sterile, 96-well assay plate with 0-60 μM of test compounds for 48 hours. MTT reagent was added to each well, final concentration of 0.5 mg/mL, and incubated for an additional 3 hours. The media was aspirated and remaining MTT reagent from each well and added 100 μL of HCl:isopropanol (1:24). The absorbance of each sample was measured at 405 nm.
For series [5], the system named is ubiquitin isopeptidases. In words: Ubiquitin isopeptidase activity, Ub-PEST substrate, lysates of treated RKO and HCT 116 cells. The series is classed as cell-based, human. Conditions: cells treated 6, 20 or 60 μM, 12 h. As to the method: A) Inhibition of isopeptidase proteolysis of Ub-PEST substrate. RKO and HCT 116 cells were treated with DMSO vehicle, 6, 20, or 60 μM of Δ12-PGJ2, DBA, NSC-302979, or curcumin, 60 μM PGB1, 60 μM NSC-156236, or 60 μM DPTP for 12 h, 37° C. Cell lysates from each treatment were incubated with Ub-PEST, as described in materials and methods. Samples were fractionated by SDS-PAGE and proteins detected with ubiquitin epitopes immunochemically (HCT 116 ^+/+ western blot shown as example of raw data). […] B) Inhibition of isopeptidase activity by test panel compounds. Isopeptidase activity was determined by measuring via densitometry, the amount of Ub generated by isopeptidase cleavage of Ub-PEST. Bar graph patterns are DMSO vehicle (black), Δ12-PGJ2 (hatched), DBA (horizontal lines), NSC-302979 (white), PGB1 (diagonally downward right lines), and NSC-156236 (diagonally downward left lines). The amount of Ub generated in the vehicle treated sample (panel A, lane 2) is arbitrarily designated 100%.
Cellular isopeptidase enzymatic activity was measured with two assays that used different substrates. In one assay ubiquitin-PEST (Ub-PEST) was used, a full-length ubiquitin molecule with an 18 amino acid c-terminal peptide extension (total mass=10.5 kDa). Ubiquitin isopeptidases specifically cleave the 18 amino acid peptide extension, releasing full-length ubiquitin (8.5 kDa).
Briefly, 6×10^5 cells were incubated with 0-60 μM of test compounds for 12 hrs. Cells were lysed in 50 μL of 25 mM HEPES, 5 mM EDTA, 0.1% CHAPS, 5 mM ATP, pH 7.5. The protein concentration of each sample was adjusted to 0.3 mg/mL and incubated with 50 μg/mL Ub-PEST for 45 minutes at 25° C. Under these conditions, Ub-PEST hydrolysis occurs at a linear rate. 20 μL samples were mixed with 20 μL 2× Laemmli buffer, boiled briefly, and fractionated by SDSPAGE. Isopeptidase activity was monitored by determining the amount of product (8.5 kDa ubiquitin) formation.

In series [6] the test system is cell lines with mutant/deleted p53. To be noted: mean of 41-42 cell lines with mutant/deleted p53; cited from earlier work.
In series [7] the test system is RKO-E6 cells. In words: MTT cell viability assay, RKO-E6 cells. To be noted: for EC50: read-out: Cytotoxic Potency (EC50) RKO-E6.
In series [8] the test system is polyubiquitin conjugates in RKO-E6 cells. In words: Accumulation of polyubiquitin in RKO-E6 cells (immunoblot). The series is classed as cell-based, human. Conditions: EC80 or 60 μM, 6-24 h. The method, then: (§1) A) Accumulation of polyubiquitin. RKO-E6 cells were treated with DMSO vehicle for 24 h, 37° C., or with the concentrations of test compounds that gave 80% cell death (as determined by cell viability assay at 48 h) for 6, 12, or 24 h, 37° C. […] Schematic depicting p53 degradation via the proteasome pathway in RKO cells versus RKO-E6 cells. The activity of the HPV E6 oncoprotein hastens p53 degradation in RKO-E6 cells. ii. RKO and RKO-E6 cells were treated with vehicle, etoposide (50 μM), MG115 (20 μM), Δ12-PGJ2 (60 μM), NSC-302979 (20 μM, DBA (20 μM), curcumin (60 μM), PGB1 (60 μM), NSC-156236, (60 XM)or DPTP 60 μM for 6 h, 37° C. Lysates were fractionated by SDS-PAGE and their p53 content determined immunochemically. iii. p53 levels were measured by densitometry and the ratio of p53 protein in RKO-E6 cells/RKO cells calculated.
(§2) The medium was removed and cells lysed in 50 mM Tris, pH 7.4, 100 mM NaCl, 2 mM EDTA with 0.1% SDS, 0.1% deoxycholate, 1× complete protease inhibitor mixture. Protein concentration was measured by the Bradford method. Equal portions of the total cell lysate were fractionated from each sample (12.5 μg of protein) by SDS-PAGE. Proteins were transferred to poly(vinylidene difluoride) blocked with 5% (w/v) nonfat dry milk in Trisbuffered saline [20 mM Tris-HCl, pH 7.5, 100 mM sodium chloride, 0.1% (v/v) Tween 20]. Proteins were detected immunochemically by using primary antibodies directed against p53 (1:4000) or ubiquitin (1:1000), followed by horseradish peroxidase-conjugated secondary antibodies (1:4000). Antigen-antibody complexes were detected with enhanced chemiluminescence reagents. Gels were scanned and quantified intensities using Kodak 1D Image Analysis Software.

The subject of series [9] is p53. In words: p53 accumulation, ratio RKO-E6 cells/RKO cells (immunoblot, densitometry). The series is classed as cell-based, human. Conditions: 6 h; etoposide 50 μM, MG115, NSC-302979, DBA 20 μM, others 60 μM. The method, then:
as §1, §2
On the technique in general: A western blot detects proteins with antibodies after separation by electrophoresis.

Series [10] deals with ubiquitin isopeptidases. In words: Ubiquitin isopeptidase activity, z-LRGG-AMC substrate, lysates of treated RKO and HCT 116 cells. The series is classed as cell-based, human. To be noted: cells treated 6, 20 or 60 μM, 12 h. As to the method: RKO (upper) and HCT 116 ^+/+ cells (lower) were treated with DMSO vehicle, 6, 20, or 60 μM of Δ12-PGJ2, DBA, NSC-302979, or curcumin, 60 μM PGB1, 60 μM NSC-156236, or 60 μM DPTP for 12 h at 37° C. Cell lysates (0.5 mg/mL) from each treatment were incubated with the isopeptidase substrate, z-LRGG-AMC, for 3 h, 37° C. The amount of AMC cleaved by isopeptidase was determined fluorometrically, as described in Materials and Methods.
The second assay used a fluorescent tetrapeptide, z-LRGG-AMC, as a substrate that mimics the carboxy-terminus of ubiquitin. Isopeptidase activity hydrolyzes the bond between the c-terminal glycine and the fluorophore. This tetrapeptide also undergoes slow proteolysis by the catalytic subunit of the proteasome. To minimize this background rate of proteolysis cell lysates were incubated with 30 μM MG115 for 30 minutes at 4° C., prior to substrate incubation (>90% proteasome inhibition). Cells were teeated as above, lysed in 250 μL of lysis buffer per sample, and adjusted protein concentration to 0.5 mg/mL prior to incubation with MG115. Next, z-LRGG-AMC substrate was added and fluorescence was quantified of the AMC moiety cleaved by isopeptidase action.

Series [11] relates to cell lines with Wild type p53. To be noted: cited from earlier work.
Series [12] has as its system HCT 116 +/+ cells. In words: MTT cell viability assay, HCT 116 p53 +/+ cells. To be noted: for cell death in HCT 116 +/+ compared with HCT 116 −/− cells: isogenic pair; for EC50: read-out: Cytotoxic Potency (EC50) HCT +/+.
The test system of series [13] is RKO cells. In words: MTT cell viability assay, RKO cells. Conditions: 48 h; for cell death in RKO compared with RKO-E6 cells: isogenic pair; for EC50: read-out: Cytotoxic Potency (EC50) RKO.
In series [14] the test system is caspase-3. In words: Caspase-3 activity in RKO cells (DEVD-AMC). The series is classed as cell-based, human. To be noted: PNG 4 0.5 μM, PNG 6 1 μM, Taxol 1 μM. The method, then: To determine if selected punaglandins, PNG 4 (8) and PNG 6 (10) also induce apoptosis in RKO cells in a time dependent manner, caspase-3 activity was determined. During apoptosis the caspases, a family of cysteinyl aspartate-specific proteases, are activated. These enzymes cleave specific substrates resulting in biochemical and morphological changes associated with apoptosis. Therefore, detection of activated caspases can be used as a biochemical marker for apoptosis. Caspase-3 has substrate specificity for the amino acid sequence Asp-Glu-Val-Asp (DEVD), cleaving after Asp, and therefore caspase activity can be measured by monitoring cleavage of the substrate DEVD-AMC (Asp-Glu-Val-Asp-7-amino-4-[…]).
RKO cells were treated for 4, 8, and 12 h with PNG 4 (8) at 0.5 μM and PNG 6 (10) at 1 μM. Taxol, a known apoptotic inducer at 1 μM, was used as a positive control, and negative control cells were treated with vehicle (0.5% DMSO). Caspase-3 activity rose steadily as expected from 4-12 h in cells treated with PNG 4 (8), PNG 6 (10), and Taxol but remained constant in the untreated control cells.

Each structure is given as a SMILES string. Where two headings read alike, the source gives them in different places.

For `CCCCC[C@H](O)/C=C/[C@H]1C=CC(=O)[C@@H]1C/C=C\CCCC(=O)O` [PGA2], the “p21 protein in treated cells relative to control cells” value in series [1] (RKO cells, 50 μM Etoposide, 60 μM PGA2, punaglandins 2 and 7 μM) is 10%. In addition, in series [2], the “p53 in RKO-E6 cells as percent of RKO cells” value was determined as 60%. The “isopeptidase inhibition relative to Δ12-PGJ2” value in series [3] was “significantly less potent”.

With `CC1=CC(=O)C2=C(C)CCC3C(C)C(=O)OC3C12` (centres unmarked) [NSC-156236, achillin], the EC50 was over 60 µM in [4] (48 h, MTT); over 60 µM in [7] (48 h, MTT); over 60 µM in [12] (48 h, MTT); over 60 µM in series [13] (MTT). Also, in series [5], the “inhibition of isopeptidase cleavage of Ub-PEST” value is recorded as “did not inhibit isopeptidase activity”. For the same molecule, in series [6], the “Mutant p53 Mean LC50” value is given as “Inactive”. In addition, the “cellular accumulation of polyubiquitin conjugates” value in series [8] is “did not cause appreciable cellular accumulation of ubiquitin conjugates”. In addition, the “ratio of p53 protein [RKO-E6 cells/RKO cells]” value in series [9] is on record as “significantly less than unity”. Besides, in series [10], the “inhibition of z-LRGG-AMC hydrolysis by ubiquitin isopeptidases” value is reported as “did not”. In addition, in series [11], the “cytotoxic activity in NCI 60 cell line cancer screening data” value was “no appreciable cytotoxic activity”. Moreover, the “Wild Type p53 Mean LC50” value in series [11] (mean of 18 cell lines with wild type p53) is recorded as “Inactive”. Further, the “cell death in HCT 116 +/+ compared with HCT 116 −/− cells” value in series [12] (48 h, MTT) was “did not cause significant cell death”. The “cell death in RKO compared with RKO-E6 cells” value in series [13] (MTT) is “did not cause significant cell death”.

Turning to `COc1cc([C@@H]2c3cc4c(cc3[C@@H](O[C@@H]3O[C@@H]5CO[C@@H](C)O[C@H]5[C@H](O)[C@H]3O)[C@H]3COC(=O)[C@H]23)OCO4)cc(OC)c1O` [Etoposide, etoposide], the “potency in HCT 116 −/− cells less than in HCT 116 +/+ cells” value in series [4] (48 h, MTT) is recorded as about 4 fold. The EC50 is 29 ± 6.8 µM in series [4] (Homo sapiens, HCT-116, 48 h); 20 ± 2.7 µM in [7] (Homo sapiens, RKOE6, 48 h); 7.8 ± 3.9 µM in series [12] (Homo sapiens, HCT-116, 48 h); 7.3 ± 1.6 µM in [13] (Homo sapiens, RKO). The “p21 protein in treated cells relative to control cells” value in series [1] (50 µM) is 290%. In addition, the “potency in RKO-E6 cells less than in RKO cells” value in series [7] (48 h, MTT) is listed as about 3 fold. The “ratio of p53 protein [RKO-E6 cells/RKO cells]” value in series [9] was 0.1. In addition, in series [2], the “p53 in RKO-E6 cells as percent of RKO cells” value came out at 50%.

On to `CC(=O)O[C@H]1C(=O)[C@@]2(C)[C@H]([C@H](OC(=O)c3ccccc3)[C@]3(O)C[C@H](OC(=O)[C@H](O)[C@@H](NC(=O)c4ccccc4)c4ccccc4)C(C)=C1C3(C)C)[C@]1(OC(C)=O)CO[C@@H]1C[C@@H]2O` [Taxol, paclitaxel], for which the EC50 in series [4] (Homo sapiens, HCT-116, 48 h) turned out to be 0.005 µM; in series [7] (Homo sapiens, RKOE6, 48 h) it was 0.004 µM; in [12] (Homo sapiens, HCT-116, 48 h) it was 0.004 µM; in [13] (Homo sapiens, RKO) it was 0.004 µM. Also, the “cell death in HCT 116 +/+ compared with HCT 116 −/− cells” value in series [12] (48 h, MTT) was “equivalent”. Besides, in series [13] (MTT), the “cell death in RKO compared with RKO-E6 cells” value is on record as “equivalent”. Besides, the “Caspase-3 activity from 4-12 h” value in series [14] is given as “rose steadily”.

(Values after US20060106099A1, “Novel inhibitors of ubiquitin isopeptidases” (priority 2002, published 2006).)
